Read-outs that look alike come from different tables or passages of the source.
Experiments:
E. coli ATCC 25922 = test: Broth microdilution MIC/MBC, glycosides with or without polymyxins; assay type: cell-based, Escherichia coli; conditions: for MIC: Escherichia coli, ATCC25922
K. pneumoniae CQ4921 = test: as above; assay type: cell-based, Klebsiella pneumoniae; conditions: for MIC: Klebsiella pneumoniae, CQ4921
E. cloacae CQ1941 = test: as above; assay type: cell-based; conditions: for MIC: Enterobacter cloacae, CQ1941
K. pneumoniae CQ1947 = test: Broth microdilution MIC, glycosides with or without polymyxins; assay type: cell-based, Klebsiella pneumoniae; conditions: for MIC: Klebsiella pneumoniae, CQ1947
Caco-2 cells = test: Resazurin cell viability assay (cytotoxicity); assay type: cell-based, human; conditions: Homo sapiens, Caco-2, 72 h, read-out: IC50
Method: (§1) Cytotoxicity of each compound alone or in combination with different polymyxin concentrations was evaluated through the resazurin cell viability assay[49] in human embryonic HEK-293T cells, as well as in human colon adenocarcinoma Caco-2 cells, after a 72-h long incubation period.
(§2) HEK-293T and Caco-2 cells were grown in RPMI 1640 medium (VWR) supplemented with 10% FBS (Biowest), 1% PenStrep (Sigma Aldrich), and 1% glutamine (Biowest) in a humidified incubator at 37 °C with a 5% CO2 atmosphere. Twice a week, the medium was aspirated, the cells were washed with DPBS (VWR), trypsinized with trypsin–EDTA solution (Biowest), and resuspended in fresh culture medium. The dose-dependent effects of each glycoside or glycoside-polymyxin combination were evaluated by the resazurin cell viability assay. Polymyxins (colistin sulfate and PMB sulfate for microbiological assays, European Pharmacopoeia Reference Standards, Sigma-Aldrich) were firstly dissolved in sterilized Mili-Q water to a stock concentration of 1 mg/mL, while glycosides were dissolved in DMSO to a stock concentration of 30 mM. 1.5 × 10^4 cells/well in 96.5 µL of medium were seeded onto 96-well plates and incubated at 37 °C for 24 h. For each compound, ten stock dilutions (with concentrations from 750 to 75 µM) were prepared in fresh medium immediately prior to incubation. 16 µL of each dilution were added to each well so that the final glycoside concentrations ranged from 100 to 10 µM in each row in a final assay volume of 120 µL. In addition, the previously prepared polymyxin stock solutions were diluted in fresh medium, affording new stocks of 8, 4, and 2 µg/mL. The same volume (7.5 µL/well) of PMB or colistin was then added to each row to achieve a final polymyxin concentration of 0.5, 0.25, and 0.125 µg/mL, respectively, regardless of the glycoside concentration. In assays without polymyxin, the same volume (7.5 µL/well) of medium was added. In all assays, the maximum DMSO concentration was 0.33%. After a 72-h incubation at 37 °C, 12 µL of a 0.15 mg/mL resazurin (Sigma-Aldrich) in sterilized Mili-Q water were added to each well, and the plates were left incubating for another 4 h at 37 °C. Resorufin was measured at 570/600 nm, and the percentage of resazurin reduction, corresponding to the cell viability percentage, was calculated according to Eq. (1)[60]. IC50 values were obtained by best fitting the dose-dependent inhibition curves using the Prism 9® software. The results were expressed as the mean ± SD of three independent replicates, with only data from analysis with R^2 > 0.90 being considered.1 %Cellviability=Abssample-Absmediumcontrol/Abscellcontrol-Absmediumcontrol×100

HEK-293T cells = test: Resazurin cell viability assay (cytotoxicity); assay type: cell-based, human; conditions: Homo sapiens, HEK-293T, 72 h, read-out: IC50
Method: as §1, §2

[1] = alone, read-out: MICA (MIC of each compound individually)
[2] = combination with the lowest FICI
[3] = compound + colistin, lowest FICI
[4] = tested alone (no polymyxin adjuvant)

## CCCCCCCCCCCCO[C@H]1C[C@H](O)[C@@H](O)[C@H](C)O1 [Compound 3, dodecyl 2,6-dideoxy-α-L-arabino-hexopyranoside]
E. coli ATCC 25922; Cpd conc. 0.4 μg/mL, strain A
  MIC of colistin in combination with the compound: 0.5 µg/mL
E. coli ATCC 25922; Cpd conc. 0.8 μg/mL, strain A
  MIC of colistin in combination with the compound: 0.5 µg/mL
E. coli ATCC 25922; Cpd conc. 3.125 μg/mL, strain A
  MIC of colistin in combination with the compound: 0.25 µg/mL
E. coli ATCC 25922; Cpd conc. 6.25 μg/mL, strain A
  MIC of colistin in combination with the compound: 0.25 µg/mL
E. coli ATCC 25922; Cpd conc. 12.5 μg/mL, strain A
  MIC of colistin in combination with the compound: 0.25 µg/mL
E. coli ATCC 25922; Cpd conc. […], strain A
  MIC of colistin in combination with the compound: 0.5 µg/mL
E. coli ATCC 25922; agent alone, no adjuvant (polymyxin conc. 0), strain A, read-out: MIC
  MIC: > 100 µg/mL
E. coli ATCC 25922; [1]
  MIC: > 100 µg/mL
E. coli ATCC 25922; PMB 0.25 μg/mL, strain A
  MIC of compound in combination with PMB: 3.1 µg/mL
E. coli ATCC 25922; PMB 0.5 μg/mL, strain A
  MIC of compound in combination with PMB: ≤ 0.1 µg/mL
E. coli ATCC 25922; colistin 0.06 μg/mL, strain A
  MIC of compound in combination with colistin: > 100 µg/mL
E. coli ATCC 25922; colistin 0.125 μg/mL, strain A
  MIC of compound in combination with colistin: > 100 µg/mL
E. coli ATCC 25922; colistin 0.25 μg/mL, strain A
  MIC of compound in combination with colistin: 3.1 µg/mL
E. coli ATCC 25922; colistin 0.5 μg/mL, strain A
  MIC of compound in combination with colistin: ≤ 0.1 µg/mL
E. coli ATCC 25922; [2]
  MICA(A + B) (MIC of compound in combination with colistin): 3.125 µg/mL
  MICB(A + B) (MIC of colistin in combination with compound): 0.25 µg/mL
E. coli ATCC 25922; compound + colistin
  Interpretation (of FICI): Additive (from 0.5 to 1.0 were additive)
E. coli ATCC 25922; [3]
  FICI: 0.52
K. pneumoniae CQ4921; Cpd conc. 0.4 μg/mL, strain C
  MIC of colistin in combination with the compound: 0.5 µg/mL
K. pneumoniae CQ4921; Cpd conc. 0.8 μg/mL, strain C
  MIC of colistin in combination with the compound: 0.5 µg/mL
K. pneumoniae CQ4921; Cpd conc. 3.125 μg/mL, strain C
  MIC of colistin in combination with the compound: 0.25 µg/mL
K. pneumoniae CQ4921; Cpd conc. 6.25 μg/mL, strain C
  MIC of colistin in combination with the compound: 0.25 µg/mL
K. pneumoniae CQ4921; Cpd conc. 12.5 μg/mL, strain C
  MIC of colistin in combination with the compound: 0.25 µg/mL
K. pneumoniae CQ4921; Cpd conc. […], strain C
  MIC of colistin in combination with the compound: 0.5 µg/mL
K. pneumoniae CQ4921; agent alone, no adjuvant (polymyxin conc. 0), strain C, read-out: MIC
  MIC: > 100 µg/mL
K. pneumoniae CQ4921; [1]
  MIC: > 100 µg/mL
K. pneumoniae CQ4921; PMB 0.5 μg/mL, strain C
  MIC of compound in combination with PMB: ≤ 0.1 µg/mL
K. pneumoniae CQ4921; colistin 0.06 μg/mL, strain C
  MIC of compound in combination with colistin: > 100 µg/mL
K. pneumoniae CQ4921; colistin 0.125 μg/mL, strain C
  MIC of compound in combination with colistin: > 100 µg/mL
K. pneumoniae CQ4921; colistin 0.25 μg/mL, strain C
  MIC of compound in combination with colistin: 3.1 µg/mL
K. pneumoniae CQ4921; colistin 0.5 μg/mL, strain C
  MIC of compound in combination with colistin: 0.2 µg/mL
K. pneumoniae CQ4921; [2]
  MICA(A + B) (MIC of compound in combination with colistin): 3.125 µg/mL
  MICB(A + B) (MIC of colistin in combination with compound): 0.25 µg/mL
K. pneumoniae CQ4921; compound + colistin
  Interpretation (of FICI): Additive (from 0.5 to 1.0 were additive)
K. pneumoniae CQ4921; [3]
  FICI: 0.52
E. cloacae CQ1941; Cpd conc. 0.4 μg/mL, strain D
  MIC of colistin in combination with the compound: 0.5 µg/mL
E. cloacae CQ1941; Cpd conc. 0.8 μg/mL, strain D
  MIC of colistin in combination with the compound: 0.5 µg/mL
E. cloacae CQ1941; Cpd conc. 3.125 μg/mL, strain D
  MIC of colistin in combination with the compound: 0.25 µg/mL
E. cloacae CQ1941; Cpd conc. 6.25 μg/mL, strain D
  MIC of colistin in combination with the compound: 0.25 µg/mL
E. cloacae CQ1941; Cpd conc. 12.5 μg/mL, strain D
  MIC of colistin in combination with the compound: 0.25 µg/mL
E. cloacae CQ1941; Cpd conc. […], strain D
  MIC of colistin in combination with the compound: 0.25 µg/mL
E. cloacae CQ1941; agent alone, no adjuvant (polymyxin conc. 0), strain D, read-out: MIC
  MIC: > 100 µg/mL
E. cloacae CQ1941; [1]
  MIC: > 100 µg/mL
E. cloacae CQ1941; PMB 0.5 μg/mL, strain D
  MIC of compound in combination with PMB: ≤ 0.1 µg/mL
E. cloacae CQ1941; colistin 0.06 μg/mL, strain D
  MIC of compound in combination with colistin: > 100 µg/mL
E. cloacae CQ1941; colistin 0.125 μg/mL, strain D
  MIC of compound in combination with colistin: > 100 µg/mL
E. cloacae CQ1941; colistin 0.25 μg/mL, strain D
  MIC of compound in combination with colistin: 1.6 µg/mL
E. cloacae CQ1941; colistin 0.5 μg/mL, strain D
  MIC of compound in combination with colistin: ≤ 0.1 µg/mL
E. cloacae CQ1941; [2]
  MICA(A + B) (MIC of compound in combination with colistin): 1.6 µg/mL
  MICB(A + B) (MIC of colistin in combination with compound): 0.25 µg/mL
E. cloacae CQ1941; compound + colistin
  Interpretation (of FICI): Additive (from 0.5 to 1.0 were additive)
E. cloacae CQ1941; [3]
  FICI: 0.51
K. pneumoniae CQ1947; Cpd conc. 0.4 μg/mL, strain F
  MIC of colistin in combination with the compound: 0.5 µg/mL
K. pneumoniae CQ1947; Cpd conc. 0.8 μg/mL, strain F
  MIC of colistin in combination with the compound: 0.5 µg/mL
K. pneumoniae CQ1947; Cpd conc. 3.125 μg/mL, strain F
  MIC of colistin in combination with the compound: 0.5 µg/mL
K. pneumoniae CQ1947; Cpd conc. 6.25 μg/mL, strain F
  MIC of colistin in combination with the compound: 0.5 µg/mL
K. pneumoniae CQ1947; Cpd conc. 12.5 μg/mL, strain F
  MIC of colistin in combination with the compound: 0.5 µg/mL
K. pneumoniae CQ1947; Cpd conc. […], strain F
  MIC of colistin in combination with the compound: 0.5 µg/mL
K. pneumoniae CQ1947; agent alone, no adjuvant (polymyxin conc. 0), strain F, read-out: MIC
  MIC: > 100 µg/mL
K. pneumoniae CQ1947; [1]
  MIC: > 100 µg/mL
K. pneumoniae CQ1947; PMB 0.25 μg/mL, strain F
  MIC of compound in combination with PMB: > 100 µg/mL
K. pneumoniae CQ1947; PMB 0.5 μg/mL, strain F
  MIC of compound in combination with PMB: 1.6 µg/mL
K. pneumoniae CQ1947; colistin 0.06 μg/mL, strain F
  MIC of compound in combination with colistin: > 100 µg/mL
K. pneumoniae CQ1947; colistin 0.125 μg/mL, strain F
  MIC of compound in combination with colistin: > 100 µg/mL
K. pneumoniae CQ1947; colistin 0.25 μg/mL, strain F
  MIC of compound in combination with colistin: > 100 µg/mL
K. pneumoniae CQ1947; colistin 0.5 μg/mL, strain F
  MIC of compound in combination with colistin: ≤ 0.1 µg/mL
K. pneumoniae CQ1947; [2]
  MICA(A + B) (MIC of compound in combination with colistin): 0.4 µg/mL
  MICB(A + B) (MIC of colistin in combination with compound): 0.5 µg/mL
K. pneumoniae CQ1947; compound + colistin
  Interpretation (of FICI): Indifferent (1.0 to 4.0 were indifferent)
K. pneumoniae CQ1947; [3]
  FICI: 1.002
Caco-2 cells; Colistin 0.25 μg/mL
  IC50: 69.2 ± 1.25 µM
Caco-2 cells; Colistin 0.5 μg/mL
  IC50: 68.2 ± 2.12 µM
Caco-2 cells; No polymyxin
  IC50: 68.9 ± 2.21 µM
Caco-2 cells; [4]
  IC50: 21.8 µg/mL
HEK-293T cells; Colistin 0.5 μg/mL
  IC50: 79.3 ± 2 µM
HEK-293T cells; No polymyxin
  IC50: 72.5 ± 2.51 µM
HEK-293T cells; PMB 0.5 μg/mL
  IC50: 75.1 ± 2.7 µM
HEK-293T cells; [4]
  IC50: 22.9 µg/mL
